In paper PMC7520419 (The AAPS Journal, 2020):
≈ marks a conversion by molar mass, not a printed value. Structures can show the parent of a compound that is named as a salt. Where two headings read alike, the source gives them in different places.

How the values were obtained:
[1] = Solubility measurement in biorelevant media (FaSSIF-V2, FeSSIF-V2); conditions: 37 °C, thermodynamic from solid
Protocol: The solubility of the drug substances was determined in biorelevant media as well as in aqueous buffers at different pH. Fasted state simulated gastric fluid (FaSSGF) ([37]), fasted state simulated intestinal fluid (FaSSIF-V2) ([38]), and fed state simulated intestinal fluid (FeSSIF-V2) ([39]) were prepared according to the instructions provided by Biorelevant (Biorelevant.com Ltd., London, UK). […] For neutral compounds, solubility was determined at pH 2, pH 4, and pH 7.
For freely soluble compounds, the extent of solubilization was measured only up to 10 mg/mL.

[2] = PBPK food effect modeling (Simcyp V17.1 and/or GastroPlus V9.5; Model 1 / Model 2); parameters: species or system human
[3] = cited from earlier work; for Observed AUC(0-inf) Fasted / Observed Cmax Fasted / Observed AUC(0-inf) Fed / Observed Cmax Fed / Observed AUC Ratios (Fed/Fasted) / Observed Cmax Ratios (Fed/Fasted): ref published clinical data (Table I)
[4] = Effective human jejunum permeability (Peff,man) used in the PBPK model; assay type: in vitro ADME; conditions: human, 1 h
Protocol: Permeation rates of the compounds, including reference compounds, were measured in the apical-to-basolateral (AB) direction. The donor and receiver wells were sampled immediately after application of the compound to the donor well to determine baseline concentrations, and again after 1 h. Quantification was done using high-performance liquid chromatography combined with mass spectrometry (HPLC-MS/MS) analysis and monolayer integrity was verified by analyzing the receiver samples for LuY fluorescence in a plate reader.

[5] = not generated within this working group; ref Table I; cited from earlier work
[6] = parameters: method as in Table I reference column; conditions: not generated within this working group; ref Table I; cited from earlier work
[7] = FaSSIF-V2 (fasted state simulated intestinal fluid), FaSSIF solubility
[8] = FeSSIF-V2 (fed state simulated intestinal fluid), FeSSIF solubility
[9] = clinically observed PK change (AUC, Cmax) fed vs fasted, compiled by literature search
[10] = direction, AUC and/or Cmax ratio fed to fasted, BE criteria 0.8–1.25, ref drug label

## CCC(C)n1ncn(-c2ccc(N3CCN(c4ccc(OCC5COC(Cn6cncn6)(c6ccc(Cl)cc6Cl)O5)cc4)CC3)cc2)c1=O (stereo not shown) [Itraconazole]
[1]; [7]
  solubility: 1.12 mg/mL (≈ 1590 µM)
[1]; [8]
  solubility: 3.62 mg/mL (≈ 5130 µM)
[2]; Model 1
  AUC Ratio of Ratios (Sim'd / Obs'd): 0.82
  Cmax Ratio of Ratios (Sim'd / Obs'd): 1.03
[2]; Model 2
  AUC Ratio of Ratios (Sim'd / Obs'd): 1.00
  Cmax Ratio of Ratios (Sim'd / Obs'd): 1.02
[3]; Model 1
  Observed AUC(0-inf) Fasted: 1.88 µg·h/mL
  Observed Cmax Fasted: 0.14 µg/mL
  Observed AUC(0-inf) Fed: 3.12 µg·h/mL
  Observed Cmax Fed: 0.239 µg/mL
  Observed AUC Ratios (Fed/Fasted): 1.66
  Observed Cmax Ratios (Fed/Fasted): 1.71
[3]; Model 2
  Observed AUC(0-inf) Fasted: 1.88 µg·h/mL
  Observed Cmax Fasted: 0.14 µg/mL
  Observed AUC(0-inf) Fed: 3.12 µg·h/mL
  Observed Cmax Fed: 0.239 µg/mL
  Observed AUC Ratios (Fed/Fasted): 1.66
  Observed Cmax Ratios (Fed/Fasted): 1.71
[3]; [9]
  Food Effect: Positive (positive if the ratio of fed > fasted)
[3]; [10]
  Food Effect: Positive (positive if the ratio of fed > fasted)
[4]
  Effective permeability: 9900 nm/s
pKa; pKa (b, basic)
  pKa: 4.28

## CCc1cc2c(cc1N1CCC(N3CCOCC3)CC1)C(C)(C)c1[nH]c3cc(C#N)ccc3c1C2=O [Alectinib]
[1]; [7]
  solubility: 0.023 mg/mL (≈ 47.7 µM)
[1]; [8]
  solubility: 0.077 mg/mL (≈ 160 µM)
[3]; Model 1
  Observed AUC(0-inf) Fasted: 1.79 µg·h/mL
  Observed AUC(0-inf) Fed: 5.23 µg·h/mL
  Observed Cmax Fed: 0.257 µg/mL
[3]; Model 2
  Observed AUC(0-inf) Fasted: 1.79 µg·h/mL
  Observed AUC(0-inf) Fed: 5.23 µg·h/mL
  Observed Cmax Fed: 0.257 µg/mL
pKa; pKa (b, basic)
  pKa: 7.05

## Cc1c(F)cccc1NC(=O)Nc1ccc(Cl)c(S(=O)(=O)[C@H]2CCCNC2)c1O [Danirixin]
[1]; [7]
  solubility: 0.459 mg/mL (≈ 1040 µM)
[2]; Model 1
  AUC Ratio of Ratios (Sim'd / Obs'd): 1.51
  Cmax Ratio of Ratios (Sim'd / Obs'd): 1.70
[3]; Model 1
  Observed AUC(0-inf) Fasted: 10.4 µg·h/mL
  Observed Cmax Fasted: 3.02 µg/mL
  Observed AUC(0-inf) Fed: 6.76 µg·h/mL
  Observed Cmax Fed: 1.3 µg/mL
  Observed AUC Ratios (Fed/Fasted): 0.65
  Observed Cmax Ratios (Fed/Fasted): 0.43
[3]; [9]
  Food Effect: Negative (negative if ratio fasted > fed)
[3]; [10]
  Food Effect: Negative (negative if ratio fasted > fed)
pKa; pKa (a, acidic)
  pKa: 4.8
pKa; pKa (b, basic)
  pKa: 8.1

## CCOC(=O)C1=C[C@@H](OC(CC)CC)[C@H](NC(C)=O)[C@@H](N)C1 [Oseltamivir]
[2]; Model 1
  AUC Ratio of Ratios (Sim'd / Obs'd): 1.09
  Cmax Ratio of Ratios (Sim'd / Obs'd): 1.34
[3]; Model 1
  Observed AUC(0-inf) Fasted: 6.22 µg·h/mL
  Observed Cmax Fasted: 0.551 µg/mL
  Observed AUC(0-inf) Fed: 6.07 µg·h/mL
  Observed Cmax Fed: 0.441 µg/mL
  Observed AUC Ratios (Fed/Fasted): 0.98
  Observed Cmax Ratios (Fed/Fasted): 0.80
[3]; [10]
  Food Effect: None (none if no significant change in AUC and Cmax with food)
[5]
  Solubility at pH 6.5: 25,000^^ μg/ml
pKa; pKa (b, basic)
  pKa: 7.7

## Cc1cn([C@H]2C[C@H](N=[N+]=[N-])[C@@H](CO)O2)c(=O)[nH]c1=O [Zidovudine]
[3]; Model 1
  Observed AUC(0-inf) Fasted: 2.48 µg·h/mL
  Observed Cmax Fasted: 1.13 µg/mL
  Observed AUC(0-inf) Fed: 2.17 µg·h/mL
  Observed Cmax Fed: 0.632 µg/mL
[3]; [9]
  Food Effect: Negative (negative if ratio fasted > fed)
[3]; ref drug label
  food effect (FE) direction: negative FE
pKa; pKa (b, basic)
  pKa: 9.7

## O=C1NC(=O)C(c2ccccc2)(c2ccccc2)N1 [Phenytoin]
[2]; Model 1
  AUC Ratio of Ratios (Sim'd / Obs'd): 0.95
  Cmax Ratio of Ratios (Sim'd / Obs'd): 0.92
[2]; Model 2
  AUC Ratio of Ratios (Sim'd / Obs'd): 0.99
  Cmax Ratio of Ratios (Sim'd / Obs'd): 1.00
[3]; Model 1
  Observed AUC(0-inf) Fasted: 104 µg·h/mL
  Observed Cmax Fasted: 4.92 µg/mL
  Observed AUC(0-inf) Fed: 127 µg·h/mL
  Observed Cmax Fed: 6.95 µg/mL
  Observed AUC Ratios (Fed/Fasted): 1.22
  Observed Cmax Ratios (Fed/Fasted): 1.41
[3]; Model 2
  Observed AUC(0-inf) Fasted: 104 µg·h/mL
  Observed Cmax Fasted: 4.92 µg/mL
  Observed AUC(0-inf) Fed: 127 µg·h/mL
  Observed Cmax Fed: 6.95 µg/mL
  Observed AUC Ratios (Fed/Fasted): 1.22
  Observed Cmax Ratios (Fed/Fasted): 1.41
[3]; [9]
  Food Effect: Positive (positive if the ratio of fed > fasted)
[3]; [10]
  Food Effect: Positive (positive if the ratio of fed > fasted)
[3]; ref drug label
  food effect (FE) direction: positive FE
[5]
  Solubility at pH 6.5: 31^^ μg/ml
[4]
  Effective permeability: 4000 nm/s
pKa; pKa (a, acidic)
  pKa: 8.06
[6]
  FaSSIF solubility: 39.6^^ μg/ml
  FeSSIF solubility: 49.5^^ μg/ml

## CC[C@H]1OC(=O)[C@H](C)[C@@H](O[C@H]2C[C@@](C)(OC)[C@@H](O)[C@H](C)O2)[C@H](C)[C@@H](O[C@@H]2O[C@H](C)C[C@H](N(C)C)[C@H]2O)[C@](C)(OC)C[C@@H](C)C(=O)[C@H](C)[C@@H](O)[C@]1(C)O [Clarithromycin]
[1]; [7]
  solubility: 0.132 mg/mL (≈ 176 µM)
[1]; [8]
  solubility: 1.66 mg/mL (≈ 2210 µM)
[3]; Model 1
  Observed AUC(0-inf) Fasted: 12.6 µg·h/mL
  Observed Cmax Fasted: 1.65 µg/mL
  Observed AUC(0-inf) Fed: 15.7 µg·h/mL
  Observed Cmax Fed: 2.51 µg/mL
[3]; Model 2
  Observed AUC(0-inf) Fasted: 12.6 µg·h/mL
  Observed Cmax Fasted: 1.65 µg/mL
  Observed AUC(0-inf) Fed: 15.7 µg·h/mL
  Observed Cmax Fed: 2.51 µg/mL
[3]; [9]
  Food Effect: Positive (positive if the ratio of fed > fasted)
[4]
  Effective permeability: 300 nm/s

## Cc1ccc(NC(=O)c2ccc(CN3CCN(C)CC3)cc2)cc1Nc1nccc(-c2cccnc2)n1 [Imatinib]
[3]; [10]
  Food Effect: None (none if no significant change in AUC and Cmax with food)
[4]
  Effective permeability: 1100 nm/s
pKa
  pKa (b, basic): 8.07
pKa; pKa (b, basic)
  pKa: 3.73

## C#Cc1cccc(Nc2ncnc3cc(OCCOC)c(OCCOC)cc23)c1 [Erlotinib]
[3]; [9]
  Food Effect: Positive (positive if the ratio of fed > fasted)

## CCCCCOC(=O)Nc1nc(=O)n([C@@H]2O[C@H](C)[C@@H](O)[C@H]2O)cc1F [Capecitabine]
[3]; [9]
  Food Effect: Negative (negative if ratio fasted > fed)

## NS(=O)(=O)c1cc2c(cc1Cl)NCNS2(=O)=O [Hydrochlorothiazide]
[3]; [9]
  Food Effect: None (none if no significant change in AUC and Cmax with food)

## C=CC1=C(C(=O)O)N2C(=O)[C@@H](NC(=O)/C(=N\O)c3csc(N)n3)[C@H]2SC1 [Cefdinir]
[3]; [9]
  Food Effect: None (none if no significant change in AUC and Cmax with food)

## NNc1nncc2ccccc12 [Hydralazine]
[3]; [9]
  Food Effect: Negative (negative if ratio fasted > fed)

## CN(C)C(=N)N=C(N)N [Metformin]
[3]; [9]
  Food Effect: None (none if no significant change in AUC and Cmax with food)

## CC(C)NC[C@@H](O)c1ccc(NS(C)(=O)=O)cc1 [d-Sotalol]
[3]; Model 1
  Observed AUC(0-inf) Fasted: 15.5 µg·h/mL
  Observed Cmax Fasted: 1.2 µg/mL
  Observed AUC(0-inf) Fed: 12.6 µg·h/mL
[3]; [9]
  Food Effect: None (none if no significant change in AUC and Cmax with food)
[5]
  Solubility at pH 6.5: 15,800^^ μg/ml
pKa
  pKa (b, basic): 9.72
pKa; pKa (a, acidic)
  pKa: 8.28

## CCCCC1=NC2(CCCC2)C(=O)N1Cc1ccc(-c2ccccc2-c2nnn[nH]2)cc1 [Irbesartan]
[3]; [9]
  Food Effect: None (none if no significant change in AUC and Cmax with food)

## CNCCC(Oc1ccc(C(F)(F)F)cc1)c1ccccc1 (stereo not shown) [Fluoxetine HCl]
[3]; Model 1
  Observed AUC(0-inf) Fasted: 1.93 µg·h/mL
  Observed Cmax Fasted: 0.0393 µg/mL
  Observed AUC(0-inf) Fed: 1.34 µg·h/mL
  Observed Cmax Fed: 0.0357 µg/mL
[3]; Model 2
  Observed AUC(0-inf) Fasted: 1.93 µg·h/mL
  Observed Cmax Fasted: 0.0393 µg/mL
  Observed AUC(0-inf) Fed: 1.34 µg·h/mL
  Observed Cmax Fed: 0.0357 µg/mL
[3]; ref drug label
  food effect (FE) direction: no FE
pKa; pKa (b, basic)
  pKa: 9.8

## CC(C)C[C@H]1C(=O)N2CCC[C@H]2[C@]2(O)O[C@](NC(=O)[C@@H]3C=C4c5cccc6[nH]c(Br)c(c56)C[C@H]4N(C)C3)(C(C)C)C(=O)N12 [Bromocriptine]
[3]; [9]
  Food Effect: None (none if no significant change in AUC and Cmax with food)

## CC(C)c1nc(CN(C)C(=O)N[C@H](C(=O)N[C@@H](Cc2ccccc2)C[C@H](O)[C@H](Cc2ccccc2)NC(=O)OCc2cncs2)C(C)C)cs1 [Ritonavir]
[3]; [9]
  Food Effect: None (none if no significant change in AUC and Cmax with food)

## Nc1nc(O)c2ncn(COC(CO)CO)c2n1 [Ganciclovir]
[3]; [9]
  Food Effect: None (none if no significant change in AUC and Cmax with food)

## O=C1Cc2cc(CCN3CCN(c4nsc5ccccc45)CC3)c(Cl)cc2N1 [Ziprasidone hydrochloride]
[3]; [9]
  Food Effect: Positive (positive if the ratio of fed > fasted)

## Nc1nc(NC2CC2)c2ncn([C@H]3C=C[C@@H](CO)C3)c2n1 [Abacavir sulfate]
[3]; [9]
  Food Effect: None (none if no significant change in AUC and Cmax with food)

## CCc1nn(CCCN2CCN(c3cccc(Cl)c3)CC2)c(=O)n1CCOc1ccccc1 [Nefazodone hydrochloride]
[3]; [9]
  Food Effect: Negative (negative if ratio fasted > fed)

## Cc1ccc(O)c([C@H](CCN(C(C)C)C(C)C)c2ccccc2)c1 [Tolterodine tartrate]
[3]; [9]
  Food Effect: None (none if no significant change in AUC and Cmax with food)
